Source: patent publication US7109317B1, “FK506-based regulation of biological events” (President and Fellows of Harvard College, priority 1998, dated 2006)

Experiments:
mink lung cells (FKBP) = experiment: rapamycin-dependent effect in mink lung cells, suppression by FK506 derivatives; assay type: cell-based
Text: To rule out these other possibilities, we tested two of the derivatives for their ability to suppress a rapamycin-dependent effect in mink lung cells (Paul A Clemons and Brent Stockwell, unpublished observations).

mink lung cells = experiment: Suppression of a rapamycin-dependent effect in mink lung cells; assay type: cell-based; details: unpublished observations
Text: Other possibilities for the reduced activity of derivatives in this assay are 1) compound insolubility in tissue culture media, 2) inability of compound to penetrate the cell membrane, or 3) inability of compound to bind to FKBP. To rule out these other possibilities, we tested two of the derivatives for their ability to suppress a rapamycin-dependent effect in mink lung cells (Paul A Clemons and Brent Stockwell, unpublished observations).

calcineurin = experiment: NFAT-SEAP reporter gene assay (calcineurin inhibition assay), PMA/ionomycin-stimulated; assay type: cell-based, human; details: dose-dependent suppression of PMA/ionomycin-induced activation of NFAT-SEAP reporter, transient transfection
Description: (§1) In particular, we transfected human TAg Jurkat T cells with a reporter construct, NFAT-SEAP, which consists of 12 copies of the NFAT response element fused upstream of the gene for secreted alkaline phosphatase (SEAP). Following transfection, the cells were exposed to phorbol myristate acetate (PMA) and ionomycin (IO), which together are able to activate NFAT-SEAP reporter activity. […] Specifically, ten million Jurkat cells per condition were transfected with 500 ng of NFAT-SEAP reporter construct by electroporation (40 ms pulse) and aliquoted at 0.3×10^6/well into a 96-well microtiter plate. […] Cells were incubated 36 hours in a tissue culture incubator, then heat-inactivated for 2 hours at 65° C. Following heating, 100 μL of cell supernatants were transferred to a replica plate containing 100 μL of assay buffer (120 μM 4-methylumbelliferyl phosphate in 2M diethanolamine bicarbonate, pH 10). Assays were incubated 8 hours before reading on a Fluoroskan plate reader.

[1] = system: endogenous calcineurin (NFAT-SEAP reporter, human TAg Jurkat T cells); experiment: NFAT-SEAP reporter assay (calcineurin inhibition assay), PMA + ionomycin stimulated human TAg Jurkat T cells; assay type: cell-based; details: for inhibition of NFAT-SEAP activity: PMA/ionomycin-induced reporter activity
Text: A similar strategy can be used to identify bump-hole pairs for the CAB domain.
Each of the residues in question is part of the CAB minimal binding domain structure. […] These mutations may be inserted randomly or in a directed fashion, as described above for FKBP.
as §1

[2] = system: (340miniCABMG)2-VE, two 340miniCAB domains in series fused to VP16, with FKBP3-GE; experiment: SEAP assay, two 340miniCAB domains in series (VE) with FKBP3-GE; assay type: cell-based, human; details: FK506, with FKBP3-GE
Description: (§2) 10 million T-antigen transformed Jurkat T-cells growing in log phase at 37 degrees with 5% CO2 in RPMI medium supplemented with 10% FBS, Penicillin and Streptomycin, and Glutamate are centrifuged for 5 minutes at 1000×g. This pellet is washed with RPMI without phenol-red and re-pelleted by centrifugation at 1000×g for 5 minutes. 200 microliters of phenol-free RPMI are used to resuspend each 10 million cells. 200 microliters of these cells are then incubated for 10 minutes at room temperature with 1 microgram of the UAS-SEAP reporter, 1 microgram of the DNA binding domain containing construct, and 5 micrograms of the activation domain containing construct. Electroporation is performed at […], 129 Ohms on a BTX electroporator. The cells are allowed to recover at room temperature for another 10 minutes. They are then resuspended in 10 mLs of RPMI w/o phenol red supplemented with 10% FBS, penicillin, streptomycin, and Glutamate and returned to the 37 degree incubator with 5% CO2 for 24 hrs.
(§3) After recovery, the cells are pelleted by centrifugation at 1000×g for 5 minutes and resuspended in 5 mLs of RPMI w/o phenol red supplemented with 10% FBS, penicillin, streptomycin, and Glutamate. 100 microliters of this cell suspension is plated on a 96 well plate. […]

[3] = system: 340miniCAB-VE constructs (CNA residues 340–394 fused to CNBMG or CNBM, VP16), with FKBP3-GE; experiment: SEAP assay, 340miniCAB-VE with FKBP3-GE; assay type: cell-based, human
Description: as §2
After recovery, the cells are pelleted by centrifugation at 1000×g for 5 minutes and resuspended in 5 mLs of RPMI w/o phenol red supplemented with 10% FBS, penicillin, streptomycin, and Glutamate. 100 microliters of this cell suspension is plated on a 96 well plate. Appropriate dilutions of the dimerizer from an ethanolic solution (2 micromolar to 0.2 nanomolar) are made in the same media that the cells were resuspended in such that the concentration of ethanol is less than 1%.

[4] = system: fCAB, CnA (12–394) fused to CnB (3–170), human calcineurin A (SEQ ID NO: 33) and calcineurin B (SEQ ID NO: 35); experiment: NFAT-SEAP reporter assay with overexpressed full length CAB (fCAB); assay type: cell-based; details: 500–5000 ng fCAB construct DNA, 500 ng NFAT-SEAP
Description: Primers containing restriction sites were prepared in order to amplify two different fragments of calcineurin A, corresponding the full-length CAB (fCAB) and the minimal CAB (mCAB). These PCR fragments were subcloned directionally into the polylinker to generate the following constructs: ATG-XhoI-CnA (12–394)-SalI-SpeI-TAA-EcoRI ATG-XhoI-CnA (340–394)-SalI-SpeI-TAA-EcoRI Primers containing restriction sites were prepared in order to amplify the fragment of calcineurin B corresponding to residues 3–170 of this protein. […] This fusion results in another (SalI/XhoI) fusion which cannot be cut by either enzyme. A similar strategy is possible to generate multimers of the CAB domain, greatly facilitating the production of these reagents. Since all of the restriction enzymes within the coding region are 6-base cutters, they preserve the reading frame for protein synthesis. The mature CAB should have the following amino acid sequence: NH2-Met-Leu-Glu-(CnA frag)-Val-Glu-(CnB frag)-Val-Asp-Thr-Ser-COOH • (SEQ ID NO 22) New mCAB-p65 constructs were verified by sequence analysis.
In particular, we transfected human TAg Jurkat T cells with a reporter construct, NFAT-SEAP, which consists of 12 copies of the NFAT response element fused upstream of the gene for secreted alkaline phosphatase (SEAP). […] Assays were incubated 8 hours before reading on a Fluoroskan plate reader. […]

[5] = system: full length CABs (residues 12–394 of human calcineurin A, SEQ ID NO: 33, fused to residue 2 or residue 3 of calcineurin B, SEQ ID NO: 35) fused to VP16 or …; experiment: SEAP transcription activation assay, full length CABs fused to VP16 or GAL4; assay type: cell-based; details: FK506 titration, Jurkat T-cells
Text: The summary of our data in this transcription assay is as follows. The full length CABS (residues 12–394 of calcineurin A fused to residue 2 or to residue 3 of Calcinuerin B) are functional when fused to VP16 or to GAL4. They have an EC50 of ˜1 nanoMolar.

[6] = system: (340miniCABMG)3-VE, three 340miniCABs in series fused to VP16, with FKBP3-GE; experiment: SEAP assay, three 340miniCAB domains in series (VE) with FKBP3-GE; assay type: cell-based, human; details: FK506, with FKBP3-GE
Description: as §2, §3

[7] = system: 350miniCABs (CNA residues 350–394 fused to CNBMG or CNBM, VP16), with FKBP3-GE; experiment: SEAP assay, 350miniCAB-VE with FKBP3-GE; assay type: cell-based, human; details: FK506, with FKBP3-GE
Text: Four such minimal CAB proteins were created by PCR and ligation. Two of the miniCABs contained CNA residues 340–394 fused to either CNBMG or CNBM(340miniCABs). The other two miniCABs contained CNA residues 350–394 fused to either CNBMG or CNBM(350miniCABs). Each of these miniCABs was also fused to the VP16 transactivation domain.
Consistent with the relative activity of CNBMG and CNBM, 340miniCABMG-VE was able to induce higher SEAP activity than 340miniCABM-VE.

[8] = system: full length CABMG-GE (CNA residues 12–394 fused to CNBMG, GAL4), with FKBP3-VE; experiment: SEAP assay, full length CABMG-GE with FKBP3-VE
Description: as §2, §3

[9] = system: 2 tandem minicabs (340–394 of CNA and 3–170 of CNB) fused to VP16, with Gal4 fused to 3 FKBPs; experiment: SEAP transcription activation assay, 2 tandem minicabs fused to VP16; details: FK506, SEAP
Description: as §2, §3

CO[C@H]1C[C@@H](C)C/C(C)=C/[C@@H](CC=Cc2ccc(Oc3ccccc3)cc2)C(=O)C[C@H](O)[C@@H](C)[C@@H](/C(C)=C/[C@@H]2CC[C@@H](O)[C@H](OC)C2)OC(=O)[C@@H]2CCCCN2C(=O)C(=O)[C@]2(O)O[C@H]1[C@@H](OC)C[C@H]2C [C40-p-phenoxyphenyl-FK506]
suppression of rapamycin-dependent effect (mink lung cells (FKBP)): able to suppress the effects of rapamycin

CO[C@H]1C[C@@H](C)C/C(C)=C/[C@@H](CC=Cc2ccccc2)C(=O)C[C@H](O)[C@@H](C)[C@@H](/C(C)=C/[C@@H]2CC[C@@H](O)[C@H](OC)C2)OC(=O)[C@@H]2CCCCN2C(=O)C(=O)[C@]2(O)O[C@H]1[C@@H](OC)C[C@H]2C [C40-phenyl-FK506]
suppression of rapamycin-dependent effect (mink lung cells (FKBP)): able to suppress the effects of rapamycin | ability to suppress the effects of rapamycin (mink lung cells): able to suppress the effects of rapamycin | fold less immunosuppressive than FK506 (calcineurin): at least 30 fold | inhibition of NFAT-SEAP activity [1]: inability of C40-phenyl-FK506 to inhibit NFAT-SEAP activity | immunosuppressive activity relative to FK506 (dose-dependent suppression of PMA/ionomycin-induced NFAT-SEAP activation) ([1]; fold less immunosuppressive than FK506, transient transfection): at least 30 fold

C=CC[C@@H]1/C=C(\C)C[C@H](C)C[C@H](OC)[C@H]2O[C@@](O)(C(=O)C(=O)N3CCCC[C@H]3C(=O)O[C@H](/C(C)=C/[C@@H]3CC[C@@H](O)[C@H](OC)C3)[C@H](C)[C@@H](O)CC1=O)[C@H](C)C[C@@H]2OC [FK506]
EC50 [2]: ~1.3 nM | stimulation of SEAP activity ([3]; FK506-dependent, with FKBP3-GE): able to stimulate SEAP activity | EC50 ([3]; miniCABs, FK506, SEAP): ~3 nM | EC50 of the miniCABs compared with full length CABMG-VE ([3]; relative to full length CABMG-VE): an order of magnitude greater than for full length CABMG-VE | inhibition of reporter gene activity at high level of fCAB overexpression [4]: a high level of fCAB overexpression overcame the ability of FK506 or its derivatives to inhibit reporter gene activity | EC50 [5]: ~1 nM | EC50 [6]: ~1.3 nM | inhibition of NFAT-SEAP activity [1]: antagonizes the effect of PMA+IO in a dose-dependent manner | stimulation of SEAP activity [7]: neither of the 350miniCABs were able to stimulate SEAP activity | enhancement of SEAP activity ([8]; FK506, with FKBP3-VE): 2.0 fold | stimulation of SEAP activity in the absence of FK506 ([8]; full CAB-GE and CAB-VE, no FK506): do not stimulate activity in the absence of FK506 | total activation [9]: ~20 fold
